Conditions: for log10 BCF / log10 biotransformation half-life (days): fish

Work on `C=C(C)[C@@H]1CC[C@@H](C)[C@@H](O)C1` yielded a boiling point of 224 °C.

`COC(=O)c1cc(Cl)ccc1N` gave a melting point of 67 °C.

Work on `CN(C)C(=O)Nc1ccccc1` yielded a log10 Koc (L/kg) of 1.4, a log10 vapour pressure (mmHg) of -4.43 and a melting point of 134 °C. For the same molecule, the ready biodegradability was “readily biodegradable”.

For `CC1(c2ccccc2)OC(C(=O)O)=CC1=O` (stereo not given), the melting point was 176 °C.

`Nc1ccc(C(=O)NCC(=O)O)cc1` showed a melting point of 198 °C.

Molecule `CCOc1cc(Cl)c(N)c(Cl)c1` has a boiling point of 275 °C and a melting point of 46 °C.

`O=C1NC(=O)c2cc([N+](=O)[O-])ccc21` showed a melting point of 201 °C.

In the case of `CCO`, the boiling point is reported as 78.2 °C, the log10 Henry constant (atm·m³/mol) is reported as -5.3 and the log10 vapour pressure (mmHg) is reported as 1.77. The melting point was -114 °C and the ready biodegradability was “readily biodegradable”.

With `CCC(=O)CC(C)C` the boiling point was 135 °C.

Molecule `CC(C)CC(=O)O` has a boiling point of 176 °C, a log10 Henry constant (atm·m³/mol) of -6.08 and a log10 vapour pressure (mmHg) of -0.356. For the same molecule, the melting point was -29.3 °C and the ready biodegradability was “readily biodegradable”.

In the case of `COC(=O)Nc1cccc(C)c1`, the ready biodegradability is reported as “readily biodegradable”.

With `CC(=O)c1cc(C(C)C)ccc1C` the boiling point was 250 °C.

Work on `CC[Si](OC)(OC)OC` yielded a boiling point of 124 °C.

`O=Cc1ccncc1` gave a log10 Henry constant (atm·m³/mol) of -6.75.

In the case of `Brc1ccc(Oc2cccc(Br)c2)cc1`, the log10 Koa is reported as 8.57.

Molecule `CCCCN(CCCC)SN(C)C(=O)Oc1cccc2c1OC(C)(C)C2` has a log10 vapour pressure (mmHg) of -6.51.

Molecule `C#CC=O` has a boiling point of 60 °C.

For `c1ccc(Nc2ccc3ccccc3c2)cc1`, the boiling point was 396 °C, the melting point was 108 °C and the ready biodegradability was “not readily biodegradable”. The log10 BCF was 2.37 and the log10 biotransformation half-life (days) was -0.41.

Work on `ClC(Cl)=CBr` yielded a boiling point of 108 °C and a melting point of -88.5 °C.

Work on `CCNP(=S)(OC)O/C(C)=C/C(=O)OC(C)C` (stereo not given) yielded a log10 vapour pressure (mmHg) of -4.84.

In the case of `Clc1cccc2cccnc12`, the boiling point is reported as 288 °C and the melting point is reported as -20 °C.

In the case of `C1CC2OC2CC1C1CO1` (stereo not given), the boiling point is reported as 227 °C and the ready biodegradability is reported as “not readily biodegradable”.

In the case of `Clc1ccc(-c2cccc(Cl)c2Cl)c(Cl)c1`, the log10 Henry constant (atm·m³/mol) is reported as -3.85 and the log10 biotransformation half-life (days) is reported as 2.62.

`O=c1cccccc1` gave a melting point of -7 °C.

With `CC(C)(C)C1CCCCC1O` (stereo not given) the melting point was 45 °C.

In the case of `O=c1n(CCO)c(=O)n(CCO)c(=O)n1CCO`, the ready biodegradability is reported as “not readily biodegradable” and the log10 BCF is reported as 0.2.

`COc1ccccc1NC(=O)CC(C)=O` gave a melting point of 86 °C.

For `FC(F)(F)C(F)(F)C(F)(F)C(F)(F)F`, the boiling point was -1.9 °C, the log10 vapour pressure (mmHg) was 3.3 and the melting point was -128 °C.

For `Brc1cncc2ccccc12`, the boiling point was 282 °C and the melting point was 41.5 °C.

Work on `O=Cc1cccc(C(=O)O)c1` yielded a melting point of 174 °C.

In the case of `Cc1cnccc1N`, the melting point is reported as 108 °C.

In the case of `Clc1c(Cl)c(Cl)c(Cl)c(Cl)c1Cl`, the boiling point is reported as 325 °C, the log10 Henry constant (atm·m³/mol) is reported as -2.77 and the log10 Koa is reported as 7.38. It also gave a log10 Koc (L/kg) of 3.74, a log10 vapour pressure (mmHg) of -4.74 and a melting point of 232 °C. The ready biodegradability was “not readily biodegradable”, the log10 BCF was 4.33 and the log10 biotransformation half-life (days) was 2.44.

In the case of `CCCCC1C(=O)N(c2ccccc2)N(c2ccccc2)C1=O`, the melting point is reported as 105 °C.

For `CCBr`, the boiling point was 38.5 °C, the log10 Koa was 2.11 and the log10 vapour pressure (mmHg) was 2.67. The melting point was -119 °C and the ready biodegradability was “not readily biodegradable”.

Work on `FCC(F)F` yielded a boiling point of 5 °C and a melting point of -84 °C.

With `O=c1[nH]c2ccccc2c(-c2ccccc2)c1O` the melting point was 268 °C.

`CC(CCC(=O)O)n1nc2ccccc2n1` (stereo not given) showed a melting point of 73 °C.

Molecule `C#C/C=C\C` has a boiling point of 48.4 °C.

Molecule `CCOC(=O)CNc1ccccc1` has a boiling point of 274 °C and a melting point of 58 °C.

Work on `O=NN1CCCC1` yielded a boiling point of 214 °C and a log10 vapour pressure (mmHg) of -1.22.

In the case of `CCC1(C2=CCCCC2)C(=O)NC(=O)NC1=O`, the melting point is reported as 173 °C.

Molecule `Nc1ccccc1C(=O)OCC=Cc1ccccc1` has a melting point of 61 °C.

In the case of `CC1(C)[C@H](/C=C(\Cl)C(F)(F)F)[C@@H]1C(=O)O[C@H](C#N)c1cccc(Oc2ccccc2)c1`, the log10 Koc (L/kg) is reported as 5.26 and the log10 vapour pressure (mmHg) is reported as -8.47.

With `COc1cc(OC)nc(N=C(O)NS(=O)(=O)N(C)S(C)(=O)=O)n1` the log10 vapour pressure (mmHg) was -6.78 and the melting point was 162 °C.

`C=C[Si](C=C)(C=C)C=C` gave a boiling point of 130 °C.

For `CC=CC#N`, the boiling point was 120 °C and the log10 vapour pressure (mmHg) was 1.5.

`O=Cc1ccc2ccccc2n1` gave a melting point of 71 °C.

`Nc1cc2ccccc2cc1N` gave a melting point of 199 °C.

`CCCCCCCCCCCCCCCC(=O)OC[C@H](O)[C@H]1OC(=O)C(O)=C1O` showed a melting point of 116 °C.

For `OC1CCCCCCC1`, the melting point was 25.1 °C.

For `O[Si](c1ccccc1)(c1ccccc1)c1ccccc1`, the melting point was 155 °C and the log10 biotransformation half-life (days) was 0.07.

With `CCC(CO)(CO)CO` the ready biodegradability was “not readily biodegradable”.

For `ClCCCCCCl`, the boiling point was 179 °C, the log10 Henry constant (atm·m³/mol) was -3.25 and the log10 vapour pressure (mmHg) was 0.0531. The melting point was -72.8 °C.

`CC(Cl)C(=O)O` (stereo not given) showed a boiling point of 185 °C.

`O=[N+]([O-])c1ccc(F)c([N+](=O)[O-])c1` gave a boiling point of 296 °C and a melting point of 25.8 °C.

With `O=[N+]([O-])c1ccc(Cl)cc1O` the melting point was 41 °C.

With `NC(=S)C(N)=S` the log10 vapour pressure (mmHg) was -5.78.

Work on `Cc1cccc(C(=O)c2ccccc2)c1` yielded a boiling point of 317 °C.

Molecule `CN(C)c1ccc2cc3ccc(N(C)C)cc3nc2c1` has a melting point of 165 °C.

In the case of `CCCn1c(=O)[nH]c(=O)c2[nH]cnc21`, the melting point is reported as 288 °C.

Molecule `CCCCC(CC)CNCC(CC)CCCC` (stereo not given) has a boiling point of 281 °C, a log10 vapour pressure (mmHg) of -2 and a melting point of -60 °C.

With `Ic1cccc(I)c1I` the melting point was 116 °C.

`CCOC(=O)c1ccccn1` showed a boiling point of 243 °C and a melting point of 1 °C.

Molecule `CCN(C)CC` has a boiling point of 66 °C and a melting point of -196 °C.

From the OPERA property sets (Mansouri et al. 2018)
